# Reference: patent US6344324B2, “Quantification of cellular injury using expression of a fluorescent protein under the control of the GADD153 promoter” (Research Development Foundation, priority 2000, dated 2002)
# Several values for one entry are separate records, joined by “and”; a condition that tells them apart may be missing. Equal entries are not always repeated. Where two headings read alike, the source gives them in different places. Starred links: 1 amine or outer side, 2 acyl side, 3 side chain; linkers in the order of their positions; H or OH if unused. Positions of bridges follow the written chain, without caps; N, C: chain ends. Non-standard residues stand in square brackets, D forms with d. Residues, ends and D or L forms follow the SMILES beside them. Chains are numbered I, II in the order given. Actinocin(9to1) = Cc1c2oc3c(C)ccc(C(=O)[*:1])c3nc-2c(C(=O)[*:2])c(N)c1=O; NMeV = CN[C@H](C(=O)O)C(C)C; Sar = CNCC(=O)O
# Key:
# [1] = system: GADD153 promoter activity in T10b45 cells
# Experimental: T10b45 cells were harvested 4 days following exposure to the injurious agent, washed once and resuspended in PBS. Cytometric analysis was performed using a Becton Dickinson (Mountain View, Calif.) FACScan equipped with an argon ion laser tuned to 488 nm to excite EGFP, and a 515/545 bandpass filter to monitor the green fluorescence emitted by EGFP. The acquired data were analyzed with the CELLQuest program. Twenty thousand events were collected for each sample. An analytical gate was set such that less than 0.2% of the untreated cells exceeded the gate. The relative fold induction was calculated by dividing the percent of treated cells in the gated region by that of untreated cells harvested at same time.
# Three hundred thousand T10b45 cells were seeded into 60 mm tissue culture dishes and treated 24 h later so that all experiments were performed with cells in the logarithmic phase of growth. The chemical agents were added directly to the tissue culture media. At the indicated times, the medium was removed and the cells were washed twice with serum-free medium and then incubated for 4 days in fresh drug-free medium at 37° C. following which they were subjected to flow cytometric analysis.
# T10b45 cells = test: Clonogenic (colony-forming) assay; assay type: cell-based, human
# GADD153 mRNA = conditions: UMSCC10b xenografts in nude mice, 50 mg/kg, 24 hr post-treatment, relative to untreated mice; ± SD; cited from earlier work
# [2] = in this strain (BALB/c nu/nu mice); cited from earlier work
# T10b45 xenografts = test: EGFP expression in T10b45 xenografts in vivo; parameters: species or system BALB/c nu/nu mice; conditions: for tumor cells expressing EGFP: tumors harvested 4 days later, ± SD
# [3] = T10b45 cells, 4 days after the insult, conditions of maximal activation (Table 1)
# [4] = quotient of fold increase in EGFP-expressing cells and Pt in DNA at 10 × IC50, mean ± SD, n = 3
# [5] = colony-forming assay, 1 hour drug exposure, colonies scored after 14 days, mean ± SD, n = 3
# [6] = 50 μM, 1 h exposure, GFP 4 days after treatment, relative to untreated control
# [7] = 50 nM, 4 h exposure, GFP 4 days after treatment, relative to untreated control
# [8] = 500 μM, 1 h exposure, GFP 4 days after treatment, relative to untreated control
smiles,measurement,setting,value
O=c1[nH]cc(F)c(=O)[nH]1 [5-Fluorouracil],Induction Ratio,"[1]; 50 μM, 4 h exposure, GFP 4 days after treatment, % GFP expressing cells relative to untreated control",3.0
same,activation of EGFP expression (in words),[1]; [3],relatively impotent
"Cc1c2oc3c(C)ccc(C(=O)N[C@@H]4C(=O)N[C@H](C(C)C)C(=O)N5CCC[C@H]5C(=O)N(C)CC(=O)N(C)[C@@H](C(C)C)C(=O)O[C@@H]4C)c3nc-2c(C(=O)N[C@@H]2C(=O)N[C@H](C(C)C)C(=O)N3CCC[C@H]3C(=O)N(C)CC(=O)N(C)[C@@H](C(C)C)C(=O)O[C@@H]2C)c(N)c1=O [Actinomycin D, actinomycin D] (I: T[dV]P[Sar][NMeV] / II: T[dV]P[Sar][NMeV]; ester I:1-I:C, II:1-II:C; linker I:N-II:N via Actinocin(9to1))",Induction Ratio,[1],7.6
same,activation of EGFP expression (in words),[1],strongly activated
"C[C@@]1(CO)[C@H](O)CC[C@@]2(C)[C@H]1CC[C@H]1C[C@@H]3C[C@@]12CC[C@]3(O)CO [Aphidicolin, aphidicolin]",Induction Ratio,"[1]; 20 μM, 24 h exposure, GFP 4 days after treatment, relative to untreated control",2.5
same,activation of EGFP expression (in words),[1]; [3],relatively impotent
O=NN(CCCl)C(=O)NCCCl [BCNU],Induction Ratio,[1],4
same,activation of EGFP expression (in words),[1],failed to produce significant activation
"N.N.O=C([O-])C1(C(=O)[O-])CCC1.[Pt+2] [Carboplatin, carboplatin]",GFP fold induction at 10 × IC50,[1],23 ± 2.6
same,Induction Ratio,"[1]; 200 μM, 42 h exposure (so in the source), GFP 4 days after treatment, relative to untreated control",33
same,activation of EGFP expression (in words),[1]; [3],strongly activated
same,Relative EGFP activation potency at 10 × IC50,[1]; [4],750.4 ± 22.1 fold induction/ng Pt/ug DNA
same,IC50,T10b45 cells; [5],10.7 ± 0.83 µM
N.N.[Cl][Pt][Cl] [Cisplatin],GFP fold induction at 10 × IC50,[1],38 ± 3.2
same,Relative EGFP activation potency at 10 × IC50,[1],825.0 ± 29.4 fold induction/ng Pt/ug DNA
same,Induction Ratio,[1]; [6],42
same,activation of EGFP expression (in words),[1]; [3],strongly activated
same,GADD153 mRNA level increase,GADD153 mRNA,3.0±0.4 fold
same,LD10,[2],12 mg/kg
same,IC50,T10b45 cells; [5],4.2 ± 0.03 µM
same,fold increase in the fraction of EGFP-expressing cells,"T10b45 xenografts; 5 mg/kg single i.p., 4 days, relative to untreated tumors",3.8 fold
same,fold increase in the fraction of cells expressing EGFP,"T10b45 xenografts; 15 mg/kg single i.p., 4 days, relative to untreated tumors",29 fold and 29.2±6.2 fold
same,tumor cells expressing EGFP,T10b45 xenografts; cisplatin 5 mg/kg single i.p.,0.49±0.5%
same,tumor cells expressing EGFP,"T10b45 xenografts; cisplatin 15 mg/kg single i.p., untreated 0.13±0.02 %",3.8±0.8%
"COc1cccc2c1C(=O)c1c(O)c3c(c(O)c1C2=O)C[C@@](O)(C(=O)CO)C[C@@H]3O[C@H]1C[C@H](N)[C@H](O)[C@H](C)O1 [Doxorubicin, doxorubicin]",Induction Ratio,"[1]; 100 nM, 4 h exposure, GFP 4 days after treatment, relative to untreated control",2.4
same,activation of EGFP expression (in words),[1]; [3],relatively impotent
"COc1cc([C@@H]2c3cc4c(cc3[C@@H](O[C@@H]3O[C@@H]5CO[C@@H](C)O[C@H]5[C@H](O)[C@H]3O)[C@H]3COC(=O)[C@H]23)OCO4)cc(OC)c1O [Etoposide, etoposide]",Induction Ratio,"[1]; 5 μM, 4 h exposure, GFP 4 days after treatment, relative to untreated control",4
same,activation of EGFP expression (in words),[1]; [3],relatively impotent
"Nc1ccn([C@@H]2O[C@H](CO)[C@@H](O)C2(F)F)c(=O)n1 [Gemcitabine, gemcitabine]",Induction Ratio,[1]; [7],0.6
same,activation of EGFP expression (in words),[1]; [3],relatively impotent
"OO [Hydrogen peroxide, hydrogen peroxide]",Induction Ratio,[1]; [8],13
same,activation of EGFP expression (in words),[1]; [3],strongly activated
CC(=O)[O][Pt]([NH2])([Cl])([Cl])([NH]C1CCCCC1)[O]C(C)=O [JM216],GFP fold induction at 10 × IC50,[1],11 ± 3.2
same,Induction Ratio,"[1]; 150 μM, 1 h exposure, GFP 4 days after treatment, relative to untreated control",43
same,activation of EGFP expression (in words),[1]; [3],strongly activated
same,Relative EGFP activation potency at 10 × IC50,[1]; [4],70.6 ± 20.5 fold induction/ng Pt/ug DNA
same,IC50,T10b45 cells; [5],4.5 ± 0.35 µM
O=C1[O][Pt]2([NH][C@@H]3CCCC[C@H]3[NH]2)[O]C1=O [Oxaliplatin],GFP fold induction at 10 × IC50,[1],100 ± 5.3
same,Induction Ratio,[1],105
same,Relative EGFP activation potency at 10 × IC50,[1],5496.0 ± 655.6 fold induction/ng Pt/ug DNA
same,activation of EGFP expression (in words),[1],strongly activated
same,IC50,T10b45 cells,5.1 ± 0.29 µM
"CC(=O)O[C@H]1C(=O)[C@@]2(C)[C@H]([C@H](OC(=O)c3ccccc3)[C@]3(O)C[C@H](OC(=O)[C@H](O)[C@@H](NC(=O)c4ccccc4)c4ccccc4)C(C)=C1C3(C)C)[C@]1(OC(C)=O)CO[C@@H]1C[C@@H]2O [Paclitaxel, paclitaxel]",Induction Ratio,"[1]; 70 nM, 4 h exposure, GFP 4 days after treatment, relative to untreated control",2.8
same,activation of EGFP expression (in words),[1]; [3],relatively impotent
Cc1nc2ccc(CN(C)c3ccc(C(=O)N[C@@H](CCC(=O)O)C(=O)O)s3)cc2c(=O)[nH]1 [Raltitrexed],Induction Ratio,[1]; [7],0.6
same,activation of EGFP expression (in words),[1]; [3],relatively impotent
"N[C@@H]1CCCC[C@H]1N.[Cl][Pt+2]([Cl])([Cl])[Cl] [Tetraplatin, tetraplatin]",GFP fold induction at 10 × IC50,[1],120 ± 7.8
same,Induction Ratio,[1]; [6],143
same,activation of EGFP expression (in words),[1]; [3],strongly activated
same,Relative EGFP activation potency at 10 × IC50,[1]; [4],10482.7 ± 516.9 fold induction/ng Pt/ug DNA
same,IC50,T10b45 cells; [5],3.3 ± 0.17 µM
CC[C@@]1(O)C(=O)OCc2c1cc1n(c2=O)Cc2cc3c(CN(C)C)c(O)ccc3nc2-1 [Topotecan],Induction Ratio,"[1]; 20 nM, 4 h exposure, GFP 4 days after treatment, relative to untreated control",1.3
same,activation of EGFP expression (in words),[1]; [3],relatively impotent
"N.N.[Cl][Pt+2][Cl] [Transplatin, transplatin]",GFP fold induction at 10 × IC50,[1],10 ± 2.0
same,Induction Ratio,[1]; [8],1
same,activation of EGFP expression (in words),[1]; [3],failed to produce significant activation
same,Relative EGFP activation potency at 10 × IC50,[1]; [4],41.3 ± 8.5 fold induction/ng Pt/ug DNA
same,IC50,T10b45 cells; [5],379 ± 31.6 µM
